The record followed here is patent publication US20250222169A1, “PHOTOINTIATOR, BIOINK INCLUDING THE SAME, AND METHODE OF MANUFACTURING HYDROGEL” (PUSAN NATIONAL UNIVERSITY INDUSTRY-UNIVERSITY COOPERATION …, priority 2024, published 2025).

Each structure is given as a SMILES string.

Series [1] in a line: Molar extinction coefficient by UV-visible absorption spectra in distilled water. The series is classed as physicochemical. The note with it: at about 405 nm, 10 mm quartz cuvettes. The source says:
FIG. 5 is a graph of a molar extinction coefficient (ε)-wavelength of Examples according to the present disclosure.

Series [2] deals with Murine NIH-3T3 fibroblasts. The experiment in a line: Cytotoxicity of the photoinitiator (cell viability of fibroblasts). The series is classed as cell-based. The note with it: concentration of about 0.2% (w/v), about 24 hours. As to the method:
Murine NIH-3T3 fibroblasts purchased from ATCC (Manassas, VA, USA) were cultured in a cell culture dish in a size of about 100 mm along with DMEM supplemented with about 10% FBS and penicillin-streptomycin (about 100 UI/ml). The cultured cells were kept at about 37° C. in a sterile culture machine (Labogene, Seoul, Korea) containing about 5% CO2 until reaching the confluence.
To conduct cell viability analysis, fibroblasts were seeded into 24-well-plates (2×10^4 cells/well) and cultured in a sterile culture machine at about 37° C. for about 12 hours, and then the media were removed.
In particular, by substituting with highly biocompatible Mg^2+ ions, it was identified that there was a remarkable effect on reduction in the cytotoxicity.

For series [3] the following is noted: in water at about 25° C.

Turning to `Cc1cc(C)c(C(=O)P(=O)([O-])c2ccccc2)c(C)c1.[Li+]` [LAP, Lithium phenyl-2,4,6-trimethylbenzoylphosphination], the molar extinction coefficient entry in series [1] is recorded as “about 29 M^−1·cm^−1”. Also, the cell viability entry in series [2] is reported as “about 46%”. Further, the maximum solubility result in series [3] is reported as “about 159.7 mM”.
